Consider 6 compounds from patent publication US10005808B2, “Crystal of alkali metal N-acetylneuraminate anhydrate, and process for producing same” (KYOWA HAKKO BIO CO., LTD., priority 2014, dated 2018).

Molecules are shown by their SMILES.

The nature of data set [1]: Degree of coloration when stored in a closed system at 60° C. (transmittance T% 430 nm). Type of data set: physicochemical. The procedure: With respect to the crystal of NeuAc sodium salt anhydrate and a crystal of known NeuAc dihydrate, the degree of coloration when stored in a closed system at 60° C. was compared, and the results are shown in Table 7. The degree of coloration is expressed by transmittance T % 430 nm=100×10^−A (A=Abs: 430 nm, 1 cm).
With respect to the crystal of NeuAc potassium salt anhydrate and a crystal of known NeuAc dihydrate, the degree of coloration when stored in a closed system at 60° C. was compared, and the results are shown in Table 14. The degree of coloration is expressed by transmittance T % 430 nm=100×10^−A (A=Abs: 430 nm, 1 cm).

The conditions of data set [2]: normal temperature; cited from earlier work.
The conditions of data set [3]: normal temperature / storage; cited from earlier work.
Data set [4] is described as follows: Measurement of degree of solubility in water (HPLC of supernatant). It counts as physicochemical. The following applies: various temperatures, FIG. 5 / FIG. 10, result in words. The procedure:
(2) Measurement of Degree of Solubility
A crystal of NeuAc sodium salt anhydrate, a crystal of NeuAc potassium salt anhydrate, or a crystal of known NeuAc dihydrate was added to water adjusted to respective temperatures until each crystal was caused to remain undissolved and after keeping the solution for a sufficient time under stirring, the supernatant containing no crystal was collected and measured for the concentration by using the following HPLC analysis conditions.
Guard column: Shodex SUGAR SH-G ϕ6.0×50 mm
Column: SUGAR SH1011 ϕ8.0×300 mm×2 columns in series
Column temperature: 60° C.
Buffer: an aqueous 0.005 mol/L sulfuric acid solution
Flow velocity: 0.6 mL/min
Detector: UV detector (wavelength: 210 nm)
The degrees of solubility in water of the crystal of NeuAc sodium salt anhydrate obtained above and a crystal of NeuAc dihydrate are illustrated in FIG. 5.
The degrees of solubility in water of the crystal of NeuAc potassium salt anhydrate obtained above and a crystal of NeuAc dihydrate are illustrated in FIG. 10.

Data set [5] can be described thus: pH of aqueous solution of the crystal at 100 g/L. Type of data set: physicochemical. Here is the method:
As for the pH, an aqueous solution at 100 g/L in terms of NeuAc sodium salt was measured.
As for the pH, an aqueous solution at 100 g/L in terms of NeuAc potassium salt was measured.

Data set [6] can be described thus: Weight change (moisture absorption) under an atmosphere of 25° C. and humidity 66%. Type of data set: physicochemical. The settings on record: humidity 66%; for weight increase due to moisture absorption (in words): up to 24 hours. Here is the method: With respect to the crystal of NeuAc sodium salt anhydrate and the noncrystalline amorphous of NeuAc sodium salt acquired in Reference Example 1, the weight change under an atmosphere of 25° C. and humidity 66% was compared, and the results are shown in Table 3.
With respect to the crystal of NeuAc potassium salt anhydrate and the noncrystalline amorphous of NeuAc potassium salt acquired in Reference Example 2, the weight change under an atmosphere of 25° C. and humidity 66% was compared, and the results are shown in Table 10.

Consider `CC(=O)N[C@H]1[C@H]([C@H](O)[C@H](O)CO)OC(O)(C(=O)O)C[C@@H]1O` (some centres unmarked) [Crystal of dihydrate, N-Acetylneuraminic acid, reference compound], for which the “Transmittance T % 430 nm” value in data set [1] (elapsed time 0 days, Table 7) is 100.1%; in data set [1] (elapsed time 0 days, Table 14), 100.1%; in data set [1] (elapsed time 3 days, Table 7), 73.26%; in data set [1] (elapsed time 3 days, Table 14), 73.26%; in data set [1] (elapsed time 6 days, Table 7) it was 50.46%; in data set [1] (elapsed time 6 days, Table 14), 50.46%. For the same compound, the degree of solubility entry in data set [2] was “about 100 g/L”. Besides, the “storage stability (in words)” value in data set [3] is reported as “gradually discolored to dark brown”.

On to `CC(=O)N[C@H]1[C@H]([C@H](O)[C@H](O)CO)OC(O)(C(=O)[O-])C[C@@H]1O.[K+]` (some centres unmarked) [Crystal of potassium salt, NeuAc potassium salt anhydrate], for which the “degree of solubility in water compared with crystal of known NeuAc dihydrate” value in data set [4] is “excellent solubility”. Moreover, the pH in data set [5] (aqueous solution at 100 g/L in terms of NeuAc potassium salt, listed as Example 4) was 6.6; in data set [5] (aqueous solution at 100 g/L in terms of NeuAc potassium salt, listed as Example 5), 6.5. Moreover, the “Rate of Weight Change” value in data set [6] (elapsed time 0 h, Table 10) is 0.00%; in data set [6] (elapsed time 3 h, Table 10), 0.06%; in data set [6] (elapsed time 7 h, Table 10), 0.00%; in data set [6] (elapsed time 24 h, Table 10), −0.06%. In data set [6] (listed as crystal of NeuAc potassium salt anhydrate), the “weight increase due to moisture absorption (in words)” value (shortened to “weight increase due”) is on record as “a weight increase was not recognized”. The “coloration during storage compared with crystal of known NeuAc dihydrate (in words)” value in data set [1] is on record as “extremely low”. Moreover, the “Transmittance T % 430 nm” value was 99.90% in data set [1] (elapsed time 0 days, Table 14); 99.73% in data set [1] (elapsed time 3 days, Table 14); 99.63% in data set [1] (elapsed time 6 days, Table 14).

`CC(=O)N[C@H]1[C@H]([C@H](O)[C@H](O)CO)O[C@](O)(C(=O)[O-])C[C@@H]1O.[Na+]` [Crystal of sodium salt, NeuAc sodium salt anhydrate]: in data set [4], the “degree of solubility in water compared with crystal of known NeuAc dihydrate” value is “excellent solubility”. In addition, the pH in data set [5] (aqueous solution at 100 g/L in terms of NeuAc sodium salt, listed as Example 1) is 6.74; in data set [5] (aqueous solution at 100 g/L in terms of NeuAc sodium salt, listed as Example 2) it was 6.8. Moreover, the “Rate of Weight Change” value in data set [6] (elapsed time 0 h, Table 3) is on record as 0.00%; in data set [6] (elapsed time 3 h, Table 3), −0.04%; in data set [6] (elapsed time 7 h, Table 3), −0.02%; in data set [6] (elapsed time 24 h, Table 3) it was −0.04%. Besides, in data set [6] (listed as crystal of NeuAc sodium salt anhydrate), the “weight increase due” value is given as “a weight increase was not recognized”. In addition, the “coloration during storage compared with crystal of known NeuAc dihydrate (in words)” value in data set [1] was “extremely low”. Also, the “Transmittance T % 430 nm” value in data set [1] (elapsed time 0 days, Table 7) is 99.98%; in data set [1] (elapsed time 3 days, Table 7) it was 100.0%; in data set [1] (elapsed time 6 days, Table 7), 100.0%.

With `CC(=O)N[C@H]1[C@H]([C@H](O)[C@H](O)CO)OC(O)(C(=O)[O-])C[C@@H]1O.O.O.O.[Na+]` (some centres unmarked) [NeuAc sodium salt trihydrate], in data set [3], the “storage stability (in words)” value is on record as “high storage stability at normal temperature”.

For the compound `CC(=O)N[C@H]1[C@H]([C@H](O)[C@H](O)CO)O[C@](O)(C(=O)[O-])C[C@@H]1O.[Na+]` [Reference Example 1, NeuAc sodium salt, reference compound], the “weight increase due” value in data set [6] (listed as noncrystalline amorphous of NeuAc sodium salt, sodium salt) is “marked weight increase due to moisture absorption and deliquesced when 24 hours had passed”.

`CC(=O)N[C@H]1[C@H]([C@H](O)[C@H](O)CO)OC(O)(C(=O)[O-])C[C@@H]1O.[K+]` (some centres unmarked) [Reference Example 2, NeuAc potassium salt, reference compound]: the “weight increase due” value in data set [6] (listed as noncrystalline amorphous of NeuAc potassium salt, potassium salt) is “marked weight increase due to moisture absorption and deliquesced when 24 hours had passed”.
